Values quoted from earlier work in patent US9060950B2, “Emetic embedded capsule” (Paul H. Rosenberg, Proximate Concepts, LLC., priority 2005, dated 2015).
Structures can show the parent of a compound that is named as a salt.

Columns and labels:
[1] = not given; remark: listed apart in the source

CC(=O)Nc1ccc(O)cc1 [acetaminophen, Acetaminophen]
amount ingested following which hepatic toxicity may occur (in vivo): 7.5 grams | amount ingested following which fatalities may occur (ingestion): 15 grams

O.O.O.O.O.O.O.O=S(=O)([O-])[O-].[Zn+2] [Zinc sulfate heptahydrate]
amount ingested that causes emesis [1]: 0.6 grams

CNCCC(Oc1ccc(C(F)(F)F)cc1)c1ccccc1 (centres unmarked) [fluoxetine hydrochloride, Fluoxetine hydrochloride]
ingested amount reported to have caused death (ingestion): 520 mg

Cc1nnc2n1-c1ccc(Cl)cc1C(c1ccccc1Cl)=NC2 [Triazolm]
amount ingested after which manifestations of overdose may occur (ingestion): 2 mg
